Results taken from US5756121A, “Antibiotic formulation and use for drug resistant infections” (NeXstar Pharmaceuticals, Inc., priority 1995, dated 1998).
Several values for one entry are separate records, joined by “and”; a condition that tells them apart may be missing. Equal entries are not always repeated. Entries after “also recorded” stand apart in the source; their conditions may differ. Where two headings read alike, the source gives them in different places.

Test system: M. tuberculosis, drug resistant strain Vertulla
Format: cell-based, Mycobacterium tuberculosis (in human macrophages)
Details: for CFU: duplicate values

Q: How did the CFU (4 μg/ml, day 4) turn out when `NCC[C@H](O)C(=O)N[C@@H]1C[C@H](N)[C@@H](O[C@H]2O[C@H](CN)[C@@H](O)[C@H](O)[C@H]2O)[C@H](O)[C@H]1O[C@H]1O[C@H](CO)[C@@H](O)[C@H](N)[C@H]1O` [amikacin] was run?
A: 9.3 1 × 10^3 cfu per monolayer and 8.0 1 × 10^3 cfu per monolayer

Q: What about the CFU (8 μg/ml, day 4) of the same compound?
A: 5 1 × 10^3 cfu per monolayer and 4 1 × 10^3 cfu per monolayer

Q: What about the CFU (8 μg/ml, day 7) of the same compound?
A: 4.5 1 × 10^3 cfu per monolayer and 6.2 1 × 10^3 cfu per monolayer

Q: What about the CFU (16 μg/ml, day 4) of the same compound?
A: 5 1 × 10^3 cfu per monolayer and 5.4 1 × 10^3 cfu per monolayer

Q: What about the CFU (16 μg/ml, day 7) of the same compound?
A: 3.7 1 × 10^3 cfu per monolayer and 4.1 1 × 10^3 cfu per monolayer

Q: What about the “inhibition / killing of drug resistant bacteria (in words)” value (4, 8 and 16 μg/ml, killing = fewer cfu than previous time point, listed as free amikacin) of the same compound?
A: at the most, inhibition; also recorded: only inhibit the growth of the infection without killing
